Source: patent US8796328B2, “TRPV1 antagonists” (AbbVie Inc., priority 2012, dated 2014)

Key:
[1] = molecular target: human TRPV1 receptor (hTRPV1) (Homo sapiens (Human), UniProt Q8NER1); assay: Acid activation assay (pH 5.0, FLIPR intracellular Ca2+); format: cell-based; conditions: 37.5 μM compound
rats [2] = assay: Rat acute capsaicin-induced flinching behavior; format: in vivo; conditions: single acute oral dose 100 μmol/kg, capsaicin 2.5 μg one hour after dosing, five minute observation
Method: Rats were placed in individual observation cages. Following an acclimation period of 30 minutes, selected compounds were administered orally at a dose of 100 μmol/kg orally in a vehicle (10% ethanol/20% Tween 80/70% polyethylene glycol-400) at a volume of 2 mL/kg. One hour after administration of the compound, 2.5 μg of capsaicin in a 10 μL solution of 10% ethanol/90% hydroxypropyl-β-cyclodextrin was injected subcutaneously into the dorsal aspect of the right hind paw. The observation cage was then suspended above mirrors in order to facilitate observation. […] The number of flinching behaviors of the injured paw was recorded during the five minute observation period (Gilchrist, H. D.; Allard, B. L.; Simone, D. A.; Enhanced withdrawal responses to heat and mechanical stimuli following intraplantar injection of capsaicin in rats. Pain, 1996, 67, 179-188). A single acute oral dose of Example 10 as described above produced a 56% reduction in flinching behavior relative to vehicle-treated animals.

rats [3] = assay: Rat tail immersion assay (noxious thermosensation, 55° C. water bath); format: in vivo
Method: Compounds were tested for their effects on noxious thermosensation using the tail immersion assay. Testing was performed one hour following oral administration of 100 μmol/kg of the compound in 10% ethanol/20% Tween-80/70% PEG-400 (2 mL/kg). Mophine (6 mg/kg) was administered interperitoneally (i.p.) using saline (2 mL/kg) as the vehicle. For testing, a circulating water bath was heated to 55° C. Thirty to sixty minutes post dosing, the rats were handled for a few seconds to calm them down and then cupped with their back against the testers hand at a slight angle with head facing away from tester. With rat in one hand and a 0.01 second stopwatch in the other hand, the tail was quickly immersed 6-8 cm in water bath or to a distance leaving 2-3 cm of tail out of water. The timer was started simultaneously. When the rat flinched or attempted withdrawal, timer was immediately stopped and the rat's tail was quickly removed from water bath. This response latency (in seconds) was recorded. Process was repeated 3 times with 3-4 minutes between readings for a final average.
For a given example, a percent increase in the average response latency (in seconds) for tail withdrawal relative to a vehicle control was determined % increase=[(tc−tv)/tv]×100%
tc=response time (in seconds) with oral dosing of compounds
tv=response time (in seconds) with oral dosing of vehicle
The % increases in tail withdrawal latency relative to vehicle control are divided into the following categories: […]

human TRPV1 receptor (hTRPV1), sequence (Q8NER1 whole entry): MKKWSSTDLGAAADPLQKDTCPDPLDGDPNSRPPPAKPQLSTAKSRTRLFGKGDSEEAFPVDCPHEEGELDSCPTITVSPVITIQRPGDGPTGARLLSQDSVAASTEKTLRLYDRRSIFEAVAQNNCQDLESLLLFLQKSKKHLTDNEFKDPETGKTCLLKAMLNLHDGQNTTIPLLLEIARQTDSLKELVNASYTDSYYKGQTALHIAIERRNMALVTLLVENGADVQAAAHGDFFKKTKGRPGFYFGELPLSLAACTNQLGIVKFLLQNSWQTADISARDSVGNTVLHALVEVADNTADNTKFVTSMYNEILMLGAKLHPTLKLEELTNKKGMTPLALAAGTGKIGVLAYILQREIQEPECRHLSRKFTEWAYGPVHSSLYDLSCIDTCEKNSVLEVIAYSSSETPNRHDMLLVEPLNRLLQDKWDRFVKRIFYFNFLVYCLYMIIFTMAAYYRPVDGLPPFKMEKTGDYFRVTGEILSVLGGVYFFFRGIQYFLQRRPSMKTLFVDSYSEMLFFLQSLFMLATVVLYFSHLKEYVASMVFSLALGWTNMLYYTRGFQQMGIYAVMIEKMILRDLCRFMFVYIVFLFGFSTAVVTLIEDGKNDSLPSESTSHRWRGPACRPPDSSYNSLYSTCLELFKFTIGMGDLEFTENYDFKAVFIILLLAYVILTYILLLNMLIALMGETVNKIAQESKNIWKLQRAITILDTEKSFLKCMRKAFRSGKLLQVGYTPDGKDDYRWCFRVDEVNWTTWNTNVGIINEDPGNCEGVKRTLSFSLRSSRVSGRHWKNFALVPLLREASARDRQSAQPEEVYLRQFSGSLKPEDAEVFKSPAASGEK

How did the remaining activity at 37.5 µM ([1]; percentage of the maximal pH 5.0-induced response remaining, read-out: hTRPV1 H+ (max % remain)) turn out when CS(=O)(=O)Nc1ccc(CNC(=O)N[C@@H]2CC(CF)(CF)Oc3cc(C(F)(F)F)ccc32)cc1F [Example 10, N-{4-[({[(4R)-2,2-bis(fluoromethyl)-7-(trifluoromethyl)-3,4-dihydro-2H-chromen-4-yl]carbamoyl}amino)methyl]-2-fluorophenyl}methanesulfonamide] was run?
Its remaining activity at 37.5 µM is 72%.

And the “human TRPV1 H+ (max % remain)” value ([1]; Table 2, percentage of maximal pH 5.0-induced response)?
The value was 72%.

And the “reduction in flinching behavior relative to vehicle-treated animals” value (rats [2])?
Its value is 56%.

And the “% Increase in Tail Withdrawal Latency” value (rats [3]; rat, oral 100 μmol/kg, one hour post dosing, relative to vehicle)?
The value was “−”.

And the “increase in tail withdrawal latency relative to vehicle-treated animals” value (rats [3]; rats, after oral administration)?
Its value is < 10%.
